Residues, ends and D or L forms follow the SMILES beside them. *: point of attachment. AMC = Cc1cc(=O)oc2cc(N*)ccc12; Cbz = O=C(OCc1ccccc1)*; Bz = O=C(c1ccccc1)*
Legend:
Format in all cases: biochemical
[1] = target: T1, thrombin (Homo sapiens, UniProt P00734); assay: Diagnostic plot of fluorogenic substrates measured in bulk fluid, to judge use in thrombin generation measurement; set-up: from tissue; host or cells: blood plasma of healthy human donors; conditions: 1 mM substrate, judged from the diagnostic plot
Protocol: The development of fluorescence intensity from aminomethylcoumarine (AMC) is typically measured in a 96-well plate fluorometer (Ascent reader, Thermolabsystems OY, Helsinki Finland) equipped with a 390/460 filter set (excitation/emission) and a dispenser. Immulon 2HB, round-bottom 96-well plates (Dynex) are used. Minimally four readings are done per minute and experiments are carried out in quadruplicate unless otherwise indicated.
To each well, 80 μl of plasma is added. Wells in which TG is measured receive 20 μl of buffer, containing the trigger but no Ca^2+.
Wells in which constant thrombin-like activity is to be measured receive 20 μl of the α2M-thrombin solution at the required concentration as indicated. For PPP, the trigger is 30 pM of recombinant tissue factor (TF) and 24 μM phosphatidyl-serine/phosphatidyl-choline/phosphatidyl-ethanolamine vesicles in Hepes-buffered saline. For PRP the trigger is 20 μl of 3 pM of rTF without added PL.
The plate is placed in the fluorometer and allowed to warm to 37° C. (minimally 15 min). The dispenser of the fluorometer is flushed with warm 100 mM CaCl2 solution, emptied, and then flushed with a prewarmed (37° C.) solution of the substrate in Hepes buffer with 60 g/L bovine serum albumin (FluCa). At the start of the experiment, the instrument dispenses 20 μl of FluCa to all the wells to be measured, registers this as zero time, shakes them for 10 s and starts reading.
A similar approach as that of example 4 can be applied to fluorogenic substrates. The substrates, previously described in ref [35] were, from left to right are BZ-Phe-Val-Arg-AMC, Z-Gly-Pro-Arg-AMC and Z-Pro-Arg-AMC, all tested at a concentration of 1 mM in the setup described under methods.
The scaling factor necessary to convert the arbitrary dF/dt values into nM thrombin is derived from the measurement of the amidolytic activity on a thrombin substrate of the material remaining after thrombin generation is over, as in example 3.

[2] = target: T1, thrombin; assay: Km of chromogenic thrombin substrates, obtained in buffer; conditions: obtained in buffer and not in plasma
Source text: (NB: The Km values have been obtained in buffer and not in plasma but any value of Km between 0.5 and 2 times the present one would have allowed similar conclusions as to the suitability in thrombingenration experiments)

[3] = target: T1, thrombin; assay: Diagnostic plot (dOD/dt against OD) of chromogenic substrates at fixed thrombin activity, to judge use in thrombin generation measurement
Protocol: A suitable chromogenic substrate, i.e. a substrate from which a chromogenic group is split when acted upon by the enzyme to be measured (thrombin, plasmin etc), is added to the reaction mixture. Unless otherwise indicated, for thrombin generation, this mixture consists of four parts of defibrinated plasma, one part of trigger solution and one part of start solution. The reactions can be carried out in a spectrophotometer cuvette, a 96 well plate to be read in a photometric well-plate reader or in a laboratory automaton as e.g. the Cobas Bio and Cobas Fara centrifugal analysers (F. Hoffmann-La Roche, Basel, Switzerland). In short in any device capable of measuring the optical density at 405 nm at 30 s intervals during 10 to 30 min.
Typically 80 μL of defibrinated plasma with 20 μL of rTF without Ca2+ are incubated at 37° C., during a time sufficient for temperature equilibration. Thrombin generation is started by adding 20 μL of a pre-warmed start solution containing 100 mM CaCl2 and 3 mM substrate. After the start of the reaction the optical density at 405 nm is recorded at intervals of maximally 30 s for the time required (≧15 min). Depending upon the measuring device a multiple of the volumes can be used.
This amount is determined by the maximal enzyme potential (η) that to be expected in the experiments. […] In the experiment to obtain the diagnostic plot the enzyme concentration (E) is constant and known. So the enzyme potential (η) is known and can be rendered In the diagnostic plot (curved thin lines in FIG. 8).
In this table η indicates the enzyme potential that is to be expected in the thrombingeneration experiment and limit indicates the limit of enzyme potential that can be measured with the indicated substrate at the indicated concentration.
In FIG. 8 it is seen that straight lines fit through the data over the whole range of ODs measured for three of the four substrates tested. For one (S2238) the straight line fits only up to mOD˜650.

[4] = S 100 μM, E 0.4 nM (S2238), 250 nM (MSC), 300 nM (SQ68)
[5] = S 50 μM, E 250 nM (MSC), 300 nM (SQ68)
[6] = S 150 μM, E 250 nM (MSC), 300 nM (SQ68)

For `Cc1cc(=O)oc2cc(NC(=O)[C@H](CCCN=C(N)N)NC(=O)[C@@H](NC(=O)[C@H](Cc3ccccc3)NC(=O)c3ccccc3)C(C)C)ccc12` [BZ-Phe-Val-Arg-AMC] (Bz-Phe-Val-Arg-{AMC}), the “suitability for the measurement of thrombin generation (fluorogenic substrates)” value (“suitability … (fluorogenic substrates)” for short) [1] was “can be used for the measurement of thrombin generation”.
With DEMZ-Gly-Arg-pNA the Km [2] was 866 µM, the “η (enzyme potential to be expected in the thrombin generation experiment)” value ([3]; S 500 μM) was 1.58 µM·min and the “limit (limit of enzyme potential that can be measured with the substrate at the indicated concentration)” value (“limit” for short) ([3]; S 500 μM, E 50 nM) was >2 nM·min.
For `Cc1cc(=O)oc2cc(NC(=O)C(CCCN=C(N)N)NC(=O)C3CCCN3C(=O)OCc3ccccc3)ccc12` (stereo not drawn) [Z-Pro-Arg-AMC] (Cbz-Pro-Arg-{AMC}; configuration not given here), the “suitability … (fluorogenic substrates)” value [1] was “can be used for the measurement of thrombin generation”.
In the case of `Cc1cc(=O)oc2cc(NC(=O)[C@H](CCCN=C(N)N)NC(=O)[C@@H]3CCCN3C(=O)CNC(=O)OCc3ccccc3)ccc12` [Z-Gly-Pro-Arg-AMC] (Cbz-Gly-Pro-Arg-{AMC}), the “suitability … (fluorogenic substrates)” value [1] was “turnover number that is so high as to have the substrate consumed before thrombin generation is over”.
In the case of `NC(N)=NCCC[C@H](NC(=O)[C@@H]1CCCCN1C(=O)[C@H](N)Cc1ccccc1)C(=O)Nc1ccc([N+](=O)[O-])cc1` [S2238, HD-Phe-Pip-Arg-pNA], the Km [2] was 10 µM, the “OD up to which the straight line fits the diagnostic plot” value ([3]; FIG. 8) was ~650 mOD and the “η (enzyme potential to be expected in the thrombin generation experiment)” value ([3]; S 100 μM) was 11 µM·min. The “limit” value [3, 4] was 0.014 nM·min, the “enzyme potential read from the plot at the OD where the straight line stops fitting” value ([3]; at mOD ~650) was ~12.5 nM·min and the “ETP to be measured in the presence of this substrate” value ([3]; due to tight binding and inhibition of natural antithrombins) was 11000 nM·min. The “suitability for the measurement of thrombin generation (chromogenic substrates)” value ([3]; judged from the diagnostic plot) was “unsuitable for the measurement of thrombin generation”.
`CC(C)C(NC(=O)OCCS(C)(=O)=O)C(=O)NC(CCCN=C(N)N)C(=O)Nc1ccc([N+](=O)[O-])cc1` (stereo not drawn) [MSC, Msc-Val-Arg-pNA] was tested, and the Km [2] was 882 µM, the “η (enzyme potential to be expected in the thrombin generation experiment)” value ([3]; S 50 μM) was 1.06 µM·min and the “limit” value [3, 5] was >15 nM·min. The “η (enzyme potential to be expected in the thrombin generation experiment)” value ([3]; S 100 μM) was 1.11 µM·min, the “limit” value [3, 4] was >15 nM·min and the “η (enzyme potential to be expected in the thrombin generation experiment)” value ([3]; S 150 μM) was 1.17 µM·min. For the same molecule, the “limit” value [3, 6] was >15 nM·min.
In the case of `COC(=O)CC(=O)NC(C)(C)C(=O)NC(CCCNC(=N)N)C(=O)Nc1ccc([N+](=O)[O-])cc1.Cl` (stereo not drawn) [SQ68, Malonyl-α-aminoisobutyryl-arginine para-nitroanilide methyl ester-HCl], the Km [2] was 830 µM, the “η (enzyme potential to be expected in the thrombin generation experiment)” value ([3]; S 50 μM) was 1.06 µM·min and the “limit” value [3, 5] was >30 nM·min. For the same molecule, the “η (enzyme potential to be expected in the thrombin generation experiment)” value ([3]; S 100 μM) was 1.12 µM·min, the “limit” value [3, 4] was >30 nM·min and the “η (enzyme potential to be expected in the thrombin generation experiment)” value ([3]; S 150 μM) was 1.18 µM·min. For the same molecule, the “limit” value [3, 6] was >30 nM·min.
